How the values were obtained:
Cytochrome P450 2D6 [1] = target: T1, Cytochrome P450 2D6 (Homo sapiens, UniProt P10635); experiment: Inhibitory effect on Bufuralol 1'-hydroxylation by human liver microsomes (Ki = apparent inhibition constant); format: ADME, Microsome
Cytochrome P450 2D6 [2] = target: T1, Cytochrome P450 2D6
Cytochrome P450 2D6 [3] = target: T1, Cytochrome P450 2D6; remark: listed apart in the source
Cytochrome P450 2D6 [4] = target: T1, Cytochrome P450 2D6; remark: listed apart in the source
Cytochrome P450 2D6 [5] = target: T1, Cytochrome P450 2D6; experiment: Apparent inhibitory constant (Ki) for Bufuralol 1'-hydroxylation by human liver microsomes; format: ADME, Microsome
Cytochrome P450 2D6 [6] = target: T1, Cytochrome P450 2D6; experiment: Inhibition of partially purified cytochrome P450 2D6 1'-hydroxybufuralol formation
Cytochrome P450 2D6 [7] = target: T1, Cytochrome P450 2D6; remark: listed apart in the source
Cytochrome P450 2D6 [8] = target: T1, Cytochrome P450 2D6; remark: listed apart in the source
Cytochrome P450 2D6 [9] = target: T1, Cytochrome P450 2D6; experiment: Inhibitory constant for cytochrome P450 2D6; format: ADME
Cytochrome P450 2D6 [10] = target: T1, Cytochrome P450 2D6; remark: listed apart in the source

T1 sequence (P10635 whole entry): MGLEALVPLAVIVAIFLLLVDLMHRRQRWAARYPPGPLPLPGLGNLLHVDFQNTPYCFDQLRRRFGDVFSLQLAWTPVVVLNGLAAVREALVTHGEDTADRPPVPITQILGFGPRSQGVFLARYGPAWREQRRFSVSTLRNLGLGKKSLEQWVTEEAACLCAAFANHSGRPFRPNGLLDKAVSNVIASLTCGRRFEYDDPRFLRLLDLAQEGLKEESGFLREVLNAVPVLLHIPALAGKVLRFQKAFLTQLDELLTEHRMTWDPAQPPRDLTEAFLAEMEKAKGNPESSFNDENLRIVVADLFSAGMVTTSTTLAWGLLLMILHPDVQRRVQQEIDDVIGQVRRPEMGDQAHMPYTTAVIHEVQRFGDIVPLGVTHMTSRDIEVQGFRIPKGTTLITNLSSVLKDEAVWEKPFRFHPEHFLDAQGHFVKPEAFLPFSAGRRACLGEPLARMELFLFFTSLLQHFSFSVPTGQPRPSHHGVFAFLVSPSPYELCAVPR

Compound: C=CC1C[N+]2(c3ccccc3)CCC1CC2C(O)c1ccnc2ccc(OC)cc12 (centres undefined)
- Ki (Cytochrome P450 2D6 [1]): 25 µM

Compound: COc1ccc2[nH]cc(CCO)c2c1
- Ki (Cytochrome P450 2D6 [1]): 100 µM

Compound: COc1ccc2ncccc2c1
- Ki (Cytochrome P450 2D6 [1]): > 1000 µM

Compound: CC1OC=C(CO)[C@H]2C[C@H]3c4[nH]c5ccccc5c4CCN3CC12 (some centres undefined)
- Ki (Cytochrome P450 2D6 [1]): 1.1 µM

Compound: C=CC1CN2CCC1CC2C(=O)c1ccnc2ccc(OC)cc12 (centres undefined)
- Ki (Cytochrome P450 2D6 [1]): 0.72 µM

Compound: C=CC1CN2CCC1C[C@H]2[C@H](O)c1ccnc2ccc(Cl)cc12 (some centres undefined)
- Ki (Cytochrome P450 2D6 [1]): 3.5 µM

Compound: COC(=O)C1=CO[C@H](C)[C@H]2CN3CCc4c([nH]c5ccccc45)[C@@H]3C[C@H]12
- Ki (Cytochrome P450 2D6 [1]): 0.017 µM

Compound: CCC1CN2CCC1CC2[C@H](O)c1ccnc2ccccc12 (some centres undefined)
- Ki (Cytochrome P450 2D6 [2]): 9.6 µM
- Ki (Cytochrome P450 2D6 [3]): 24 µM
- Ki (Cytochrome P450 2D6 [4]): 8 µM

Compound: C=CC1CN2CCC1C[C@@H]2[C@@H](O)c1ccnc2ccc(Cl)cc12 (some centres undefined)
- Ki (Cytochrome P450 2D6 [1]): 0.52 µM

Compound: COC(=O)C1=CNC(C)C2CN3CCc4c([nH]c5ccccc45)[C@@H]3C[C@H]12 (some centres undefined)
- Ki (Cytochrome P450 2D6 [1]): 2.9 µM

Compound: O=C(O)[C@H]1[C@H]2C[C@H]3c4[nH]c5ccccc5c4CCN3C[C@@H]2CC[C@H]1O
- Ki (Cytochrome P450 2D6 [1]): 6.3 µM

Compound: COC(=O)C1=CO[C@@H](C)[C@H]2C[n+]3ccc4c([nH]c5ccccc54)c3C[C@H]12
- Ki (Cytochrome P450 2D6 [1]): 2.2 µM

Compound: CCC1CN2CCC1CC2C(O)c1ccnc2ccccc12 (centres undefined)
- Ki (Cytochrome P450 2D6 [2]): 2.8 µM
- Ki (Cytochrome P450 2D6 [3]): 3.2 µM
- Ki (Cytochrome P450 2D6 [4]): 1.6 µM

Compound: C=CC1CN2CCC1C[C@@H]2[C@@H](O)c1ccnc2ccccc12 (stereo in doubt; 9b)
- Ki (Cytochrome P450 2D6 [2]): 3.5 µM
- Ki (Cytochrome P450 2D6 [3]): 5.4 µM
- Ki (Cytochrome P450 2D6 [5]): 3.5 µM
- Ki (Cytochrome P450 2D6 [6]): 2.6 µM
- Ki (Cytochrome P450 2D6 [4]): 3.5 µM
- Ki (Cytochrome P450 2D6 [7]): 1 µM

Compound: C=CC1CN2CCC1C[C@@H]2[C@@H](O)c1ccnc2ccccc12 (stereo in doubt; 10b)
- Ki (Cytochrome P450 2D6 [2]): 7.3 µM
- Ki (Cytochrome P450 2D6 [3]): 16 µM
- Ki (Cytochrome P450 2D6 [1]): 7.5 µM
- Ki (Cytochrome P450 2D6 [6]): 25 µM
- Ki (Cytochrome P450 2D6 [4]): 7.5 µM
- Ki (Cytochrome P450 2D6 [8]): 9.3 µM

Compound: COC(=O)C1=CO[C@@H](C)[C@H]2C=[N+]3CCc4c([nH]c5ccccc45)[C@@H]3C[C@H]12 [CATHENAMINE]
- Ki (Cytochrome P450 2D6 [1]): 3.2 µM

Compound: CCC1CN2CCC1CC2[C@@H](O)c1ccnc2ccc(OC)cc12 (some centres undefined) [DIHYDROQUINIDINE]
- Ki (Cytochrome P450 2D6 [1]): 0.066 µM

Compound: Cc1nccc2c1[nH]c1ccccc12 [HARMAN]
- Ki (Cytochrome P450 2D6 [1]): 86 µM

Compound: CC[C@H]1CN2CC[C@H]1C[C@H]2[C@H](O)c1ccnc2ccc(OC)cc12 [HYDROQUININE]
- Ki (Cytochrome P450 2D6 [1]): 4 µM

Compound: CN1[C@@H](CC(=O)c2ccccc2)CCC[C@H]1C[C@H](O)c1ccccc1 [LOBELINE]
- Ki (Cytochrome P450 2D6 [9]): 0.12 µM

Compound: CC(C)N1CCC(c2ccccc2)(c2ccccc2)CC1 [PRODIPINE]
- Ki (Cytochrome P450 2D6 [9]): 0.0048 µM

Compound: c1ccc2c(c1)[n-]c1c3[n+](ccc12)CC1CCCCC1C3 (centres undefined) [SEMPERVIRINE]
- Ki (Cytochrome P450 2D6 [1]): 9.7 µM

Compound: COC(=O)C1=CO[C@@H](C)[C@@H]2CN3CCc4c([nH]c5ccccc45)[C@@H]3C[C@H]12 [TETRAHYDROALSTONINE]
- Ki (Cytochrome P450 2D6 [1]): 1.1 µM

Compound: RAUWOLFIA SERPENTINA
- Ki (Cytochrome P450 2D6 [10]): 0.0046 µM
- Ki (Cytochrome P450 2D6 [5]): 0.0046 µM

Reference: ChEMBL document CHEMBL1126649, “Development of a pharmacophore for inhibition of human liver cytochrome P-450 2D6: molecular modeling and inhibition studies” (J Med Chem, 1993)
